This is an account of results in US12622910B2, “Inhibitors of Bruton's tyrosine kinase and methods of their use” (Janssen Pharmaceutica NV, priority 2021, dated 2026).

The target of data set [1] is T1, BTK (Homo sapiens, UniProt Q06187). The data set is described as follows: Mechanistic PK/BTKO model and simulations. Further details: measuring free BTK levels in peripheral blood mononuclear cells (PBMCs) and calculating % BTKO; endogenous in cells; host or cells: human PBMCs, lysed after isolation from whole blood. The source says: A mechanistic covalent binding model (FIG. 2) was used to describe the receptor occupancy of compound of Formula (III). The equations describing the binding model are shown in equations 1-5.
T1 sequence (Q06187 whole entry): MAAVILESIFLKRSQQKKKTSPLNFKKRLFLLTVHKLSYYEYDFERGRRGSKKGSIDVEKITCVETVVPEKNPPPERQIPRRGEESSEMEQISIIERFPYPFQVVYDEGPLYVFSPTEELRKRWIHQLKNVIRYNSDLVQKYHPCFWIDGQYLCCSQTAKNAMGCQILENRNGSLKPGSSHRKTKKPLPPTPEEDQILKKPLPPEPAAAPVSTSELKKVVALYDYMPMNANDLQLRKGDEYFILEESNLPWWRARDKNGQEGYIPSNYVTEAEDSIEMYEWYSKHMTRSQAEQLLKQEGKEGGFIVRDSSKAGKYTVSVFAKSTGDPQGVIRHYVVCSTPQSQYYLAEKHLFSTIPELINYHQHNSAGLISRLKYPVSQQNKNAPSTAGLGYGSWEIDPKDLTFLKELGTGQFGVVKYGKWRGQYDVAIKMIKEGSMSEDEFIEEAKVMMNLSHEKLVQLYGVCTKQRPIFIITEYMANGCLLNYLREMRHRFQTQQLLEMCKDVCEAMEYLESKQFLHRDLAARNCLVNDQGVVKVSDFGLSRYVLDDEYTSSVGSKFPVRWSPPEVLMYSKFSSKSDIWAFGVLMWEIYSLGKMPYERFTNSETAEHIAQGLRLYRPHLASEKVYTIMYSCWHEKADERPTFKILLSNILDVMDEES
where symbols represent the free BTK protein concentration (BTK), drug-BTK complex (BTKb) and covalently bound complex (BTKi). The rate constants in the equations include zero-order rate of BTK synthesis (ksyn); the first-order rate of free BTK degradation (kdegf); the first-order rate of covalently bound complex degradation (Kdegi); association rate drug-BTK binding (kon); dissociation rate drug-BTK binding (koff). C1 is the concentration in central compartment. BTK0 is the baseline value of BTK. […]
In order to refine predictions of % BTKO after multiple dosing for the MAD cohorts and to help select a starting dose for the subsequent first-in-patient oncology study, a prior mechanistic PK/PD model based on in vitro and in vivo BTKO data was updated with clinical PK/BTKO data collected from SAD cohorts of the FIH study. […] The evaluated dosing regimens included 12 mg, 36 mg, 70 mg, 100 mg, 140 mg, 200 mg QD dose. […]
Once MAD data were available, the semi-mechanistic PK/PD model was updated with the acquired data from SAD and MAD cohorts. All covariate effects in the popPK analysis were evaluated on clearance from the central compartment (CL/F) only, except for body weight, food effect, and drug formulation. […]

Data set [2] is described as follows: Population PK model and simulations. Further details: species or system human.
The subject of another data set is B-cell activation. As to the kind of experiment: Rat whole blood assay, anti-IgD-induced B-cell activation (CD86). In kind it is cell-based, Wistar rat. Particulars: anti-IgD stimulation, n=2, read-out: IC50, inhibition of B-cell activation in rat whole blood. The source says:
The compound of Formula (III) Inhibits B-cell receptor activation—Rat whole blood assays were used to assess the ability of the compound of Formula (III) to inhibit activation of primary B cells in whole blood. The assay used anti-IgD stimulation to trigger B-cell activation. Cell activation in freshly isolated blood was quantified by staining for cell surface expression of B220 to identify B cells and a cell activation marker CD86.
Rat Whole Blood Assay-Anti-rat IgD was purchased from Bio-Rad AbD Serotec, Ltd. (Oxford, United Kingdom). Rat B220-PE and rat CD86-FITC were purchased from eBioscience (San Diego, CA). Lysing buffer was purchased from BD Biosciences (San Diego, CA). To determine the potency of each compound, inhibition of anti-IgD-induced activation of B cells in rat whole blood was assessed by flow cytometry. […]
Inhibition percentage was determined by the following equation: Inhibition %=(ActBstim−ActBcompound)×100/(ActBstim−ActBunstim), where […], ActBunstim, and ActBcompound refer to the percentage of activated B cells of the stimulated (no compound), unstimulated (no antibody), and compound treated wells, respectively. The IC50 for each compound was then calculated from the inhibition % of the titrations using a 4-PL fit. […]

The nature of data set [3]: Intestinal microsomal stability. In kind it is in vitro ADME. Particulars: intestinal microsomes. The source says: In human hepatocytes, the compound of Formula (III) is metabolized by CYP3A through mono-oxidations and N-dealkylations and by GSH conjugation to its acrylamide functionality. It bears moderate metabolic stability in hepatocytes across species and is slowly metabolized in human intestinal microsomes fortified with NADPH.

The target in data set [4] is T1, BTK. As to the kind of experiment: Ramos B cell BTK occupancy assay (probe ELISA). In kind it is cell-based. The arrangement: endogenous in cells. As to the method: In vitro cellular target engagement-The dose-response of BTK occupancy was assessed using a Ramos B cell occupancy assay. Irreversible reaction with […] excludes it from further reaction and enables selective detection of the free (unreacted) BTK with a chemical probe, which utilizes the same binding site and reaction mechanism as the compound of formula (III). The probe carries a biotin sidechain to tag free BTK with an affinity handle to enable detection by ELISA.
In general terms: An ELISA detects its analyte on a solid surface through an enzyme-linked reagent.

[5] abbreviates: model (B), all SAD and MAD data.

Molecules are shown by their SMILES. Where only a bound is given, the exact number is not on record here.

In general, IC50 refers to the concentration at which inhibition is half-maximal. As usually defined, the microsomal CLint is the rate of metabolic loss divided by the concentration. A higher microsomal CLint goes with rapid turnover. As to `C=CC(=O)N[C@H]1CCC[C@H]1NC(=O)c1sc2nccc3c2c1NC(=O)N3c1cnc(CC(C)C)cc1C` (atropisomer, axis not shown) [compound of Formula (III), N-((1R,2S)-2-Acrylamidocyclopentyl)-5-(S)-(6-isobutyl-4-methylpyridin-3-yl)-4-oxo-4,5-dihydro-3H-1-thia-3,5,8-triazaacenaphthylene-2-carboxamide], the “kon, PD model estimate” value is reported as 0.0447 l/nM/h at BTK [1] (model (A), SAD cohorts 2-5) and 0.0509 l/nM/h on BTK [1] (setting [5]). For the same compound, the “V2/F, popPK estimate” value in data set [2] (model (A), first 5 SAD cohorts) was 43.0 L; in data set [2] (setting [5]), 49.5 L. Besides, the IC50 came out at 41 ± 11.7 nM in the data set on B-cell activation and 21 ± 7 nM at BTK [4] (Ramos B cells, n=11, read-out: BTK occupancy IC50 (mean±SD)). Further, the intrinsic metabolic clearance (microsomal CLint) in data set [3] (Sprague Dawley, rat) is below 3.9 µL/min/mg; in data set [3] (beagle, dog), below 3.9 µL/min/mg; in data set [3] (human) it was 14.1 µL/min/mg. In addition, at BTK [4] (100 and 300 nM), the “time to full BTK occupancy” value is at most 40 min.
